Measured values from ChEMBL document CHEMBL5291721, “A preclinical secondary pharmacology resource illuminates target-adverse drug reaction associations of marketed drugs” (Nat Commun, 2023).

Key:
[1] = molecular target: T1, 5-hydroxytryptamine receptor 3A (Homo sapiens, UniProt P46098); assay type: functional
T1 sequence (P46098 whole entry): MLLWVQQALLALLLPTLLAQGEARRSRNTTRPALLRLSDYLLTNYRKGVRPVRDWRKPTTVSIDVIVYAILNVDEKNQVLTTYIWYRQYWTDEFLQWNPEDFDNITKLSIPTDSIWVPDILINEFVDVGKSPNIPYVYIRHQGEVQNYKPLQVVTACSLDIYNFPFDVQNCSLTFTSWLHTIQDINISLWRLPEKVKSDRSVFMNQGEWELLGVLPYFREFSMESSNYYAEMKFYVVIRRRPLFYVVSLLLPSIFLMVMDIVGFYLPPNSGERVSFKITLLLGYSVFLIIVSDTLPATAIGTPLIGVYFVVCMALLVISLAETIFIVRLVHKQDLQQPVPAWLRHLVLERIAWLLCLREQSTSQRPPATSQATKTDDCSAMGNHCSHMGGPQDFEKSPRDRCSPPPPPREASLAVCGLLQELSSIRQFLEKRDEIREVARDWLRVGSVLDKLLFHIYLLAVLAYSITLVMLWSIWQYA

[2] = molecular target: T2, Adenosine receptor A1 (Homo sapiens, UniProt P30542)
T2 sequence (P30542 whole entry): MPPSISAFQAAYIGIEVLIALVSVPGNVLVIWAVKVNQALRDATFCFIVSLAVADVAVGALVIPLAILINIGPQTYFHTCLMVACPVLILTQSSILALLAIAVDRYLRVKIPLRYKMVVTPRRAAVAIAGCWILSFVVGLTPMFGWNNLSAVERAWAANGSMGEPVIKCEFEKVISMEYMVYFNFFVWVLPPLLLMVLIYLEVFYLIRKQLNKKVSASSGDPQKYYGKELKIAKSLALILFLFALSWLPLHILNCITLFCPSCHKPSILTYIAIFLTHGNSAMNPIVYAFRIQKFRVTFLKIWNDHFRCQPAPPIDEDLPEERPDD

[3] = molecular target: T3, Adenosine receptor A3 (Homo sapiens, UniProt P0DMS8)
T3 sequence (P0DMS8 whole entry): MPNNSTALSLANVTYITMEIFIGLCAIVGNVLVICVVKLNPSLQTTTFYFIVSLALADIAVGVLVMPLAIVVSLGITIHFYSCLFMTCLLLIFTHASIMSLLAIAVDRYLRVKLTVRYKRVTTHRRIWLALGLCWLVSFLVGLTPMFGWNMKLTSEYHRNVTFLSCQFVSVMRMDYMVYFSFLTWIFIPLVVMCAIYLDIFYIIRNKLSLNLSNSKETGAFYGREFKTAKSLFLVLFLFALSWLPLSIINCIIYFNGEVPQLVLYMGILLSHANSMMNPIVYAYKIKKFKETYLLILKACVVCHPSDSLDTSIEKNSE

[4] = molecular target: Voltage-gated inwardly rectifying potassium channel KCNH2 (Homo sapiens, UniProt Q12809); assay type: functional; conditions: read-out: AC50
Chain of Voltage-gated inwardly rectifying potassium channel KCNH2 (Q12809 whole entry): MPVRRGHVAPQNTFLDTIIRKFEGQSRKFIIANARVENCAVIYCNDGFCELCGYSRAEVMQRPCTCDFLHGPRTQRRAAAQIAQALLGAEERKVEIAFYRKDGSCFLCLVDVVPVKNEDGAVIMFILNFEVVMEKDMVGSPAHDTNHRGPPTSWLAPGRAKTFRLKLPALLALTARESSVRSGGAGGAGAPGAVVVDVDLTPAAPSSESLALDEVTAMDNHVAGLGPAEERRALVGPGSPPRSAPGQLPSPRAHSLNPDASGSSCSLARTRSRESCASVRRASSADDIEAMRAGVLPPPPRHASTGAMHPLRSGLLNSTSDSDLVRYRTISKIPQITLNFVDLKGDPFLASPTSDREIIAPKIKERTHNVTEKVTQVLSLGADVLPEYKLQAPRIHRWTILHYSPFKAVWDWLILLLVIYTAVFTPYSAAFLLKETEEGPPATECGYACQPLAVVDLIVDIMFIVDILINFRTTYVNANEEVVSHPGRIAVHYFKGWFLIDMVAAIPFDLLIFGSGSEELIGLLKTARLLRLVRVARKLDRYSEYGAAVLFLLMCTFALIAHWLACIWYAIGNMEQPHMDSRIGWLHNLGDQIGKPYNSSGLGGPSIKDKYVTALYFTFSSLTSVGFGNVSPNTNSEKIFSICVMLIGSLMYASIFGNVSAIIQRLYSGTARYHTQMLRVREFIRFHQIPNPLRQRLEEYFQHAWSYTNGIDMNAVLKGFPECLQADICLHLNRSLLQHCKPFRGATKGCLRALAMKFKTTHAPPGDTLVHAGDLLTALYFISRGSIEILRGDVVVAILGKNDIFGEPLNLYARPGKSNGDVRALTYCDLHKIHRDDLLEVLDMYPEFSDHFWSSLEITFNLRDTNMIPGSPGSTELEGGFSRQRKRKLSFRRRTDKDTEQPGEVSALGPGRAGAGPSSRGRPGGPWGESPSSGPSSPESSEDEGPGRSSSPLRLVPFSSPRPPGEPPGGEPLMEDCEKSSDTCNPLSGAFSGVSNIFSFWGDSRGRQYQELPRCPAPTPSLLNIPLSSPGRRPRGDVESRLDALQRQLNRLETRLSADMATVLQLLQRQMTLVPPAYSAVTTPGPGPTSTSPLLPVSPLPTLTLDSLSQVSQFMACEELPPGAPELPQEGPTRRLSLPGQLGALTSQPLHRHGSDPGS

[5] = molecular target: T4, Muscarinic acetylcholine receptor M2 (Homo sapiens, UniProt P08172); assay type: functional, cell-based
T4 sequence (P08172 whole entry): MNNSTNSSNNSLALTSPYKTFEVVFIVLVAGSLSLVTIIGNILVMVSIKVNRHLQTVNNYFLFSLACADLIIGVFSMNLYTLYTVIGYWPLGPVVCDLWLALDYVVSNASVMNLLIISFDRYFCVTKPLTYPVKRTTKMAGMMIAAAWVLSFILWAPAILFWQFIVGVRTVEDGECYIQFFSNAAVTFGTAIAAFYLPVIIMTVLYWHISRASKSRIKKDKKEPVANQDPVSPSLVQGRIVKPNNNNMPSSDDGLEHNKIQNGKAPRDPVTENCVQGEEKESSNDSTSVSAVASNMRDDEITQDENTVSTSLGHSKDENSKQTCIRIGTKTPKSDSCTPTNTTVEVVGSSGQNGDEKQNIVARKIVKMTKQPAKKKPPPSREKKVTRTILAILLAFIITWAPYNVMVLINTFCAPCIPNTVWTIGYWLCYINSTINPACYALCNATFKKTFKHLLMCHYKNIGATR

[6] = molecular target: 5-hydroxytryptamine receptor 2B (Homo sapiens, UniProt P41595); assay type: functional, cell-based
Chain of 5-hydroxytryptamine receptor 2B (P41595 whole entry): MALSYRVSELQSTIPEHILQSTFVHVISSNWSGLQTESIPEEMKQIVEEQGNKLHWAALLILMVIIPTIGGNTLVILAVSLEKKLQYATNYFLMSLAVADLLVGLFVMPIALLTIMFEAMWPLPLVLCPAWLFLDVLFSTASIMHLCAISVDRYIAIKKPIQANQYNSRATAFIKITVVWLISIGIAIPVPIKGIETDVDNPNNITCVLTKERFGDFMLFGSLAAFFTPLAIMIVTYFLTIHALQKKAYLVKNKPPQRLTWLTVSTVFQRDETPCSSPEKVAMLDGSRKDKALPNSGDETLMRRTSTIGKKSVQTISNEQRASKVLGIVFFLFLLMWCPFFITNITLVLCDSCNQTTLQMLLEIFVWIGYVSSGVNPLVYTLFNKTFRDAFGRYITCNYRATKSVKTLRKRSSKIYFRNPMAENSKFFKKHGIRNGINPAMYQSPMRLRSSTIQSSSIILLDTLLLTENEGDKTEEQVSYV

[7] = molecular target: Neuronal acetylcholine receptor subunit alpha-4 (Homo sapiens, UniProt P43681)
Chain of Neuronal acetylcholine receptor subunit alpha-4 (P43681 whole entry): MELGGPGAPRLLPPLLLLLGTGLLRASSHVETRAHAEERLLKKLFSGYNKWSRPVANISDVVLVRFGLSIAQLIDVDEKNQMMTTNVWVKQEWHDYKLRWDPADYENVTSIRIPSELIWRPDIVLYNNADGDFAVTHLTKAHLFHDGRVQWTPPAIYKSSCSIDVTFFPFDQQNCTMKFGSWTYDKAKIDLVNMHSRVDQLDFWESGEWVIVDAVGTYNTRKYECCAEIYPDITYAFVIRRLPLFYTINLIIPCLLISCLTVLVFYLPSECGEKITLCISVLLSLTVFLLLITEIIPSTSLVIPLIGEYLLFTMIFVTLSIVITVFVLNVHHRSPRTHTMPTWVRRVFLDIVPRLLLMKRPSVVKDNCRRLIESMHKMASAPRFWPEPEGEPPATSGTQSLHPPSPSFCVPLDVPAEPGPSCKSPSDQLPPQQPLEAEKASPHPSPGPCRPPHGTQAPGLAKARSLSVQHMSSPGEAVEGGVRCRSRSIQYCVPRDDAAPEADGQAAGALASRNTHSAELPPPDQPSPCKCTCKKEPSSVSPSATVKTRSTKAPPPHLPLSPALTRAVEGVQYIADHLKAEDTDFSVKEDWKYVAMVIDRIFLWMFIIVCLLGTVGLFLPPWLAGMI

[8] = molecular target: T5, Type-1 angiotensin II receptor (Homo sapiens, UniProt P30556)
T5 sequence (P30556 whole entry): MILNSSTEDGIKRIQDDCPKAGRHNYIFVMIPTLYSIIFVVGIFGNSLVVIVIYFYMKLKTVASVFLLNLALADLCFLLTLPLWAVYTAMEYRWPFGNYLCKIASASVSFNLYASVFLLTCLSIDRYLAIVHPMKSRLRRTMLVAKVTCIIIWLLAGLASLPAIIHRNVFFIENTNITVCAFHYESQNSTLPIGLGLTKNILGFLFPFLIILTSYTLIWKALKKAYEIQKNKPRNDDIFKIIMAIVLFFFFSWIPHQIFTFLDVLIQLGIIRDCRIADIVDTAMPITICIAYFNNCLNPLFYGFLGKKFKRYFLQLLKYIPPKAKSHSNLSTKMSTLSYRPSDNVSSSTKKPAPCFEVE

[9] = molecular target: T6, Equilibrative nucleoside transporter 1 (Homo sapiens, UniProt Q99808)
T6 sequence (Q99808 whole entry): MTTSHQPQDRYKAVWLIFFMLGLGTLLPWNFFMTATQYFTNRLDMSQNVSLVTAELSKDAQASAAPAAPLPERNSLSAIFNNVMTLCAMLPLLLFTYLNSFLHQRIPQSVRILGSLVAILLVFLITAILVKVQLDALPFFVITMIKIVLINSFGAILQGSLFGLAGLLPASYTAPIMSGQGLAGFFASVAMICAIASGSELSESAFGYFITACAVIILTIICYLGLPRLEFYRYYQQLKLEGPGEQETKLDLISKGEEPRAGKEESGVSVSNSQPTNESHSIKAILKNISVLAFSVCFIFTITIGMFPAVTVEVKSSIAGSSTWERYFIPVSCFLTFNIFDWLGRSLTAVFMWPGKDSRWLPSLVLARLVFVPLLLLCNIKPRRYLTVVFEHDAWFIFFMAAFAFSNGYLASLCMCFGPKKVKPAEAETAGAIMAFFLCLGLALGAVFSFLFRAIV

[10] = molecular target: Delta-type opioid receptor (Homo sapiens, UniProt P41143)
Chain of Delta-type opioid receptor (P41143 whole entry): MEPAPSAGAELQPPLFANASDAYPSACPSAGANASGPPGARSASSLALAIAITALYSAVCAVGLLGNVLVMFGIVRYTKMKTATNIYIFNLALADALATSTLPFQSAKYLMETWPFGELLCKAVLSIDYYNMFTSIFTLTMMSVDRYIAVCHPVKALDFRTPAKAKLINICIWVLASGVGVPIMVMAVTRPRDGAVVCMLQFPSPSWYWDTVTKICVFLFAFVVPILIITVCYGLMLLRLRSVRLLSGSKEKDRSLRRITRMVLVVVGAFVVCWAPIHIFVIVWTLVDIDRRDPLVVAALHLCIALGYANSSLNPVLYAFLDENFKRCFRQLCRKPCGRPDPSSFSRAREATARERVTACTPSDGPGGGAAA

[11] = molecular target: Motilin receptor (Homo sapiens, UniProt O43193)
Chain of Motilin receptor (O43193 whole entry): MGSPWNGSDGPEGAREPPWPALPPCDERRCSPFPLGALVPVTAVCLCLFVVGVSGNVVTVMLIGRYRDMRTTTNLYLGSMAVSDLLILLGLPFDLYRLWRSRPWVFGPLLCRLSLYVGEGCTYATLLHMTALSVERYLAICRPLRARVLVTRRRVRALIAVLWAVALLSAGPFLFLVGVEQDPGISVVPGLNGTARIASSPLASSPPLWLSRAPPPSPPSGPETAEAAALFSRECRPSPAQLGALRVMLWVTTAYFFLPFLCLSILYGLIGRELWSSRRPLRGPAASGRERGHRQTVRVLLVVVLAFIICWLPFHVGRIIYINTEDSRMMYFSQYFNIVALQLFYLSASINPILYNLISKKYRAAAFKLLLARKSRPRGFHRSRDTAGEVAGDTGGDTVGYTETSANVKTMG
Further: assay procedure not described here.

Compound | AC50 [1] | AC50 [2] | AC50 [3] | AC50 [4] | AC50 [5] | AC50 [6] | AC50 [7] | AC50 [8] | AC50 [9] | AC50 [10] | AC50 [11]
COC(=O)N[C@H](C(=O)N[C@@H](Cc1ccccc1)[C@@H](O)CN(Cc1ccc(-c2ccccn2)cc1)NC(=O)[C@@H](NC(=O)OC)C(C)(C)C)C(C)(C)C [ATAZANAVIR] | > 30 µM | > 30 µM | > 30 µM | > 30 µM | > 10 µM | > 10 µM | > 30 µM | > 10 µM | > 30 µM | > 30 µM | 6.4 µM
CC(C)NCC(O)COc1ccc(COCCOC(C)C)cc1 (stereo not given) [BISOPROLOL] | > 10 µM | > 30 µM | > 30 µM | > 30 µM | > 10 µM | > 10 µM | > 10 µM | > 30 µM | > 30 µM | > 10 µM | > 10 µM
N[C@@H](C(=O)N[C@@H]1C(=O)N2C(C(=O)O)=C(Cl)CS[C@H]12)c1ccccc1 [CEFACLOR ANHYDROUS] | > 30 µM | > 30 µM | 24 µM | > 30 µM | > 30 µM | > 30 µM | > 30 µM | > 30 µM | > 30 µM | > 30 µM | > 30 µM
O=C(O)c1cc(-c2ccc(F)cc2F)ccc1O [DIFLUNISAL] | > 30 µM | > 10 µM | > 10 µM | > 30 µM | > 10 µM | > 10 µM | > 10 µM | > 10 µM | > 10 µM | > 30 µM | > 10 µM
COC(=O)[C@@H]1CC2=CC(=O)CC[C@]2(C)[C@@]23O[C@@H]2C[C@@]2(C)[C@@H](CC[C@@]24CCC(=O)O4)[C@H]13 [EPLERENONE] | > 30 µM | > 30 µM | > 30 µM | > 30 µM | > 30 µM | > 30 µM | > 30 µM | > 30 µM | > 30 µM | > 30 µM | > 30 µM
CC(C)C(=O)Nc1ccc([N+](=O)[O-])c(C(F)(F)F)c1 [FLUTAMIDE] | > 30 µM | > 30 µM | > 30 µM | 2.53 µM | > 10 µM | > 10 µM | > 30 µM | > 10 µM | > 10 µM | > 30 µM | > 30 µM
C[C@@H]1O[C@@H]1P(=O)(O)O [FOSFOMYCIN] | > 30 µM | > 10 µM | > 10 µM | > 30 µM | > 10 µM | > 10 µM | > 10 µM | > 10 µM | > 10 µM | > 30 µM | > 10 µM
COc1ccc2c(c1)C(=O)N(CCc1ccc(S(=O)(=O)NC(=O)NC3CCCCC3)cc1)C(=O)C2(C)C [GLIQUIDONE] | > 30 µM | > 30 µM | > 30 µM | > 30 µM | > 30 µM | > 30 µM | > 30 µM | > 30 µM | > 30 µM | > 30 µM | > 30 µM
NS(=O)(=O)c1cc2c(cc1Cl)NCNS2(=O)=O [HYDROCHLOROTHIAZIDE] | > 10 µM | > 30 µM | > 30 µM | > 30 µM | > 10 µM | > 10 µM | > 10 µM | > 30 µM | > 30 µM | > 10 µM | > 10 µM
CC(C)Cc1ccc(CC(=O)O)cc1 [IBUFENAC] | > 30 µM | > 30 µM | > 30 µM | > 30 µM | > 30 µM | > 30 µM | > 30 µM | > 30 µM | > 30 µM | > 30 µM | > 30 µM
CC(C)NNC(=O)c1ccncc1 [IPRONIAZID] | > 30 µM | > 30 µM | > 30 µM | > 30 µM | > 30 µM | > 30 µM | > 30 µM | > 30 µM | > 30 µM | > 30 µM | > 30 µM
NC[C@H]1O[C@H](O[C@H]2[C@H](O)[C@@H](O[C@H]3O[C@H](CO)[C@@H](O)[C@H](N)[C@H]3O)[C@H](N)C[C@@H]2N)[C@H](O)[C@@H](O)[C@@H]1O [KANAMYCIN] | > 30 µM | > 10 µM | > 10 µM | > 30 µM | > 10 µM | > 10 µM | > 10 µM | > 10 µM | > 10 µM | > 30 µM | > 10 µM
CN1C(=O)CC(C)(c2ccccc2)C1=O (stereo not given) [METHSUXIMIDE] | > 30 µM | > 10 µM | > 10 µM | > 30 µM | > 10 µM | > 10 µM | > 10 µM | > 10 µM | > 10 µM | > 30 µM | > 10 µM
C[C@H]1C[C@@H]2[C@H]([C@@H](O)C[C@@]3(C)[C@H]2CC[C@]3(O)C(=O)CO)[C@@]2(C)C=CC(=O)C=C12 [METHYLPREDNISOLONE] | > 30 µM | > 10 µM | > 10 µM | > 30 µM | > 10 µM | > 10 µM | > 10 µM | > 10 µM | > 10 µM | > 30 µM | > 10 µM
CC(C)(C(=O)c1cccnc1)c1cccnc1 [METYRAPONE] | > 30 µM | > 10 µM | > 10 µM | > 30 µM | > 10 µM | > 10 µM | > 10 µM | > 10 µM | > 10 µM | > 30 µM | > 10 µM
